Test results: patent US8207156B2, “Substituted pyrazoline compounds, their preparation and use as medicaments” (Laboratorios Del Dr. Esteve, S.A., priority 2005, dated 2012)

Target: recombinant human cannabinoid 1 receptor (CB1) (Homo sapiens, UniProt P21554)
Test: In vitro determination of antagonism to CB1-receptor ([35S]GTPγS binding assay, CHO cell membranes)
Assay type: biochemical
Settings: compound at 1 μM against agonist WIN 55,212-2 (3 nM to 3 μM); effect of Rimonabant (1 μM) defined as 100%
Description: Chinese hamster ovary (CHO) cells stably expressing recombinant human cannabinoid 1 receptor (CB1) were cultured in nutrient mixture Ham's F 12 supplemented with 10% heat-inactivated fetal bovine serum, 2 mM L-glutamine, 50 U/ml penicillin, 50 U/ml streptomycin and 0.5 mg/ml geneticin. In order to obtain cells, culture flasks were washed twice with phosphate buffered saline and scraped. Then, cells were collected by centrifugation (200×g, 10 min) and stored dry at −80° C. Cells were homogenized in ice-cold 20 mM HEPES, 10 mM EDTA (pH 7.5) and centrifuged at 40,000×g for 15 min at 4° C. The membrane pellet was resuspended in 20 mM HEPES, 0.1 mM EDTA (pH 7.5) and centrifuged for 15 min at 4° C. The final membrane pellet was resuspended in 20 mM HEPES, 0.1 mM EDTA (pH 7.5), and divided in aliquots and stored at −80° C. until use.
The reaction was performed in 96-well plates. Membranes (15 μg protein/well) were incubated for 60 min at 30° C. in buffer (50 mM HEPES, 100 mM KCl, 5 mM MgCl2,1 mM EDTA, 0.1% wt/vol bovine serum albumin, 5 μM GDP, saponin (10 μg/ml), 0.5 nM [^35S]GTPγS, pH 7.4) with compound at a final concentration of 1 μM in either the absence or presence of agonist WIN 55, 212-2 between 3 nM and 3 μM. The incubation was terminated by rapid filtration through Millipore Multiscreen glass fiber FB, and rinsed two-times with ice-cold assay buffer. Filter plates were dried and 30 μl of scintillation liquid was added. Radioactivity was determined using a Wallac Microbeta Trilux. Each experiment was performed at least in duplicate. A WIN 55, 212-2 dose-response experiment either alone or in the presence of Rimonabant (1 μM) was systematically performed.
The average of basal [^35S]GTPγS binding was subtracted from all binding data. In order to compare the antagonism results from one screening campaign to another one, the difference between the maximal agonist effect of WIN 55, 212-2 alone, and the maximal antagonism effect due to WIN 55, 212-2 plus Rimonabant (1 μM) was defined as 100%.

Sequence of recombinant human cannabinoid 1 receptor (CB1) (P21554 whole entry): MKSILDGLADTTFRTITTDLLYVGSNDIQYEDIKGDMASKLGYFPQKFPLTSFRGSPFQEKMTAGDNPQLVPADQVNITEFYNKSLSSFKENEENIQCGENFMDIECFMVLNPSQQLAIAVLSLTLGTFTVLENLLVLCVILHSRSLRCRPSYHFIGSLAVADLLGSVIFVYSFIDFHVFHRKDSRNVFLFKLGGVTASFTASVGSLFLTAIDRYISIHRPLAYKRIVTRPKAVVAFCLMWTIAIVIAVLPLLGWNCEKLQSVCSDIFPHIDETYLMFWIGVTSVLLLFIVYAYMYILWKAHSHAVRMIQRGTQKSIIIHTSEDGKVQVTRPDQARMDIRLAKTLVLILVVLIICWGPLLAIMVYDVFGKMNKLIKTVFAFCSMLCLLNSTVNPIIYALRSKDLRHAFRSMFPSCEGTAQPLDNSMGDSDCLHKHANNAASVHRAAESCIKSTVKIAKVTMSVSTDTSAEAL

Row | Compound | Antagonism [%]
1 | Cl.O=C(NN1CCOCC1)C1=NN(c2ccc(Cl)cc2Cl)C(c2ccc(Cl)cc2)C1 (stereo not drawn) [Example 9, 5-(4-Chloro-phenyl)-1-(2,4-dichloro-phenyl)-4,5-dihydro-1H-pyrazole-3-carboxylic acid morpholin-4-ylamide hydrochloride] | 53%
2 | O=C(NN1CC2CCCC2C1)C1=NN(c2ccc(Cl)cc2Cl)C(c2ccc(Cl)cc2)C1 (stereo not drawn) [Example 10, 5-(4-Chloro-phenyl)-1-(2,4-dichloro-phenyl)-4,5-dihydro-1H-pyrazole-3-carboxylic acid (hexahydro-cyclopenta[c]pyrrol-2-yl)-amide] | 119%
3 | COC(C)(C)[C@@H]1CCCN1NC(=O)C1=NN(c2ccc(Cl)cc2Cl)C(c2ccc(Cl)cc2)C1 (stereo partly drawn) [Example 15, 5-(4-Chloro-phenyl)-1-(2,4-dichloro-phenyl)-4,5-dihydro-1H-pyrazole-3-carboxylic acid [2-(1-methoxy-1-methyl-ethyl)-pyrrolidin-1-yl]-amide] | 6%
4 | CC1CCC(NC(=O)C2=NN(c3ccc(Cl)cc3Cl)C(c3ccc(Cl)cc3)C2)CC1 (stereo not drawn) [Example 17, 5-(4-Chloro-phenyl)-1-(2,4-dichloro-phenyl)-4,5-dihydro-1H-pyrazole-3-carboxylic acid (4-methyl-cyclohexyl)-amide] | 65%
5 | CCCCCCNC(=O)C1=NN(c2ccc(Cl)cc2Cl)C(c2ccc(Cl)cc2)C1 (stereo not drawn) [Example 20, 5-(4-Chloro-phenyl)-1-(2,4-dichloro-phenyl)-4,5-dihydro-1H-pyrazole-3-carboxylic acid hexylamide] | 61%
6 | O=C(C1=NN(c2ccc(Cl)cc2Cl)C(c2ccc(Cl)cc2)C1)N1CCN(C2CCCCC2)CC1 (stereo not drawn) [Example 21, [5-(4-Chloro-phenyl)-1-(2,4-dichloro-phenyl)-4,5-dihydro-1H-pyrazol-3-yl]-(4-cyclohexyl-piperazin-1-yl)-methanone] | 66%
7 | O=C(NN1C(=O)c2cccc3cccc(c23)C1=O)C1=NN(c2ccc(Cl)cc2Cl)C(c2ccc(Cl)cc2)C1 (stereo not drawn) [Example 24, 5-(4-Chloro-phenyl)-1-(2,4-dichloro-phenyl)-4,5-dihydro-1H-pyrazole-3-carboxylic acid (1,3-dioxo-1H,3H-benzo[de]isoquinolin-2-yl)-amide] | 27%
8 | O=C(NN1Cc2cccc3cccc(c23)C1)C1=NN(c2ccc(Cl)cc2Cl)C(c2ccc(Cl)cc2)C1 (stereo not drawn) [Example 25, 5-(4-Chloro-phenyl)-1-(2,4-dichloro-phenyl)-4,5-dihydro-1H-pyrazole-3-carboxylic acid (1H,3H-benzo[de]isoquinolin-2-yl)-amide] | 7%
9 | O=C(NN1CCN(C2CCCC2)CC1)C1=NN(c2ccc(Cl)cc2Cl)C(c2ccc(Cl)cc2)C1 (stereo not drawn) [Example 26, 5-(4-Chloro-phenyl)-1-(2,4-dichloro-phenyl)-4,5-dihydro-1H-pyrazole-3-carboxylic acid (4-cyclopentyl-piperazin-1-yl)-amide] | 52%
10 | O=C(NN1CCc2ccccc21)C1=NN(c2ccc(Cl)cc2Cl)C(c2ccc(Cl)cc2)C1 (stereo not drawn) [Example 28, 5-(4-Chloro-phenyl)-1-(2,4-dichloro-phenyl)-4,5-dihydro-1H-pyrazole-3-carboxylic acid (2,3-dihydro-indol-1-yl)-amide] | 63%
11 | O=C(NC1CCC1)C1=NN(c2ccc(Cl)cc2Cl)C(c2ccc(Cl)cc2)C1 (stereo not drawn) [Example 30, 5-(4-Chloro-phenyl)-1-(2,4-dichloro-phenyl)-4,5-dihydro-1H-pyrazole-3-carboxylic acid cyclobutylamide] | 54%
12 | CCN(C(=O)C1=NN(c2ccc(Cl)cc2Cl)C(c2ccc(Cl)cc2)C1)C1CCCCC1 (stereo not drawn) [Example 33, 5-(4-Chloro-phenyl)-1-(2,4-dichloro-phenyl)-4,5-dihydro-1H-pyrazole-3-carboxylic acid cyclohexyl-ethyl-amide] | 2%
13 | O=C(NC1CCCCCCC1)C1=NN(c2ccc(Cl)cc2Cl)C(c2ccc(Cl)cc2)C1 (stereo not drawn) [Example 34, 5-(4-Chloro-phenyl)-1-(2,4-dichloro-phenyl)-4,5-dihydro-1H-pyrazole-3-carboxylic acid cyclooctylamide] | 60%
14 | CCCCCC(C)NC(=O)C1=NN(c2ccc(Cl)cc2Cl)C(c2ccc(Cl)cc2)C1 (stereo not drawn) [Example 35, 5-(4-Chloro-phenyl)-1-(2,4-dichloro-phenyl)-4,5-dihydro-1H-pyrazole-3-carboxylic acid (1-methyl-hexyl)-amide] | 68%
15 | O=C(NC1CC1)C1=NN(c2ccc(Cl)cc2Cl)C(c2ccc(Cl)cc2)C1 (stereo not drawn) [Example 36, 5-(4-Chloro-phenyl)-1-(2,4-dichloro-phenyl)-4,5-dihydro-1H-pyrazole-3-carboxylic acid cyclopropylamide] | −5%
16 | O=C(C1=NN(c2ccc(Cl)cc2Cl)C(c2ccc(Cl)cc2)C1)N1CCCCCCC1 (stereo not drawn) [Example 38, Azocan-1-yl-[5-(4-chloro-phenyl)-1-(2,4-dichloro-phenyl)-4,5-dihydro-1H-pyrazol-3-yl]-methanone] | 45%
17 | O=C(C1=NN(c2ccc(Cl)cc2Cl)C(c2ccc(Cl)cc2)C1)N1Cc2ccccc2C1 (stereo not drawn) [Example 39, [5-(4-Chloro-phenyl)-1-(2,4-dichloro-phenyl)-4,5-dihydro-1H-pyrazol-3-yl]-(1,3-dihydro-isoindol-2-yl)-methanone] | 62%
18 | O=C(C1=NN(c2ccc(Cl)cc2Cl)C(c2ccc(Cl)cc2)C1)N1CCC1 (stereo not drawn) [Example 40, Azetidin-1-yl-[5-(4-chloro-phenyl)-1-(2,4-dichloro-phenyl)-4,5-dihydro-1H-pyrazol-3-yl]-methanone] | 32%
19 | O=C(C1=NN(c2ccc(Cl)cc2Cl)C(c2ccc(Cl)cc2)C1)N1CCC(N2CCCCC2)CC1 (stereo not drawn) [Example 42, [1,4′]Bipiperidinyl-1′-yl-[5-(4-chloro-phenyl)-1-(2,4-dichloro-phenyl)-4,5-dihydro-1H-pyrazol-3-yl]-methanone] | −13%
20 | CN1CCN(C(=O)C2=NN(c3ccc(Cl)cc3Cl)C(c3ccc(Cl)cc3)C2)CC1 (stereo not drawn) [Example 43, [5-(4-Chloro-phenyl)-1-(2,4-dichloro-phenyl)-4,5-dihydro-1H-pyrazol-3-yl]-(4-methyl-piperazin-1-yl)-methanone] | 25%
21 | CCOC(=O)N1CCN(C(=O)C2=NN(c3ccc(Cl)cc3Cl)C(c3ccc(Cl)cc3)C2)CC1 (stereo not drawn) [Example 44, 4-[5-(4-Chloro-phenyl)-1-(2,4-dichloro-phenyl)-4,5-dihydro-1H-pyrazole-3-carbonyl]-piperazine-1-carboxylic acid ethyl ester] | 39%
22 | O=C(C1=NN(c2ccc(Cl)cc2Cl)C(c2ccc(Cl)cc2)C1)N1CCc2ccccc2C1 (stereo not drawn) [Example 45, [5-(4-Chloro-phenyl)-1-(2,4-dichloro-phenyl)-4,5-dihydro-1H-pyrazol-3-yl]-(3,4-dihydro-1H-isoquinolin-2-yl)-methanone] | 59%
23 | CC1CCCCN1C(=O)C1=NN(c2ccc(Cl)cc2Cl)C(c2ccc(Cl)cc2)C1 (stereo not drawn) [Example 46, [5-(4-Chloro-phenyl)-1-(2,4-dichloro-phenyl)-4,5-dihydro-1H-pyrazol-3-yl]-(2-methyl-piperidin-1-yl)-methanone] | 53%
24 | CN(C(=O)C1=NN(c2ccc(Cl)cc2Cl)C(c2ccc(Cl)cc2)C1)C1CCCCC1 (stereo not drawn) [Example 47, 5-(4-Chloro-phenyl)-1-(2,4-dichloro-phenyl)-4,5-dihydro-1H-pyrazole-3-carboxylic acid cyclohexyl-methyl-amide] | 28%
